[1] = CCI-779 final population model, whole blood, RCC patients
[2] = CCI-779 model, 1,000 bootstrap sample runs
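Further: population pharmacokinetic analysis in NONMEM of pooled full and sparse blood sampling from patients, exponential error on kinetic parameters, proportional residual error, bootstrap check over 1,000 resamples.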

Experimental: In a randomized, double-blind, multicenter trial, once-weekly intravenous doses of 25-, 75-, or 250-mg of CCI-779 were administered to patients with advanced renal cancer that were either previously treated, or untreated and not appropriate candidates for high dose interlukin-2 therapy. Whole blood for CCI-779 and metabolite concentrations was drawn for population pharmacokinetic analysis, and Bayesian-predicted area under the concentration-time curves for parent drug (AUC), parent plus metabolite (AUCsum), and cumulative AUC and AUCsum were derived.
For CCI-779 clearance, factors for dose, attenuation of exposure with multiple-dose, and effect of body surface area were included.
The following examples were based on a randomized, double-blind, multicenter, outpatient phase 2 study of CCI-779 administered by 30 minute intravenous infusion (via an automatic dispensing pump) in patients with advanced RCC. Eligible patients were randomly assigned to treatment in a 1:1:1 ratio to receive 25 mg, 75 mg, or 250 mg of CCI-779 weekly until evidence of disease progression.
Full pharmacokinetic profiling was planned in a subset of patients, with remaining patients to provide sparse sampling.
The bioanalytical method for CCI-779 was performed using whole blood in a liquid chromatography/tandem mass spectrometry (LC/MS/MS) procedure with deuterated internal standard.
In order to characterize the pharmacokinetic profiles of patients providing sparse blood sampling, fully and sparsely sampled patient data were analyzed collectively using a population pharmacokinetic method and the NONMEM application (version 1.0, Revision 5.0 on Windows NT 4.0 computer with Pentium processor, NONMEM Project Group, University of California at San Francisco, Calif.). […] Data were therefore modeled separately and segregated by analyte into two separate data sets with dose, time/duration of administration, and demographic information. […] Construction of the NONMEM infile was performed using SAS (version 8.1) on a Sun Microsystems mainframe computer with Sun OS 5.8. […] In both cases, the model-derived value for AUC for a given patient and analyte were obtained from the quotient of CCI-779 Dose/Clearance (CL), in which CL was obtained from Bayesian estimation and the POSTHOC option of NONMEM.
During model building, an exponential error model was applied to the kinetic model.

## CO[C@H]1C[C@@H]2CC[C@@H](C)[C@@](O)(O2)C(=O)C(=O)N2CCCC[C@H]2C(=O)O[C@H]([C@H](C)C[C@@H]2CC[C@@H](OC(=O)C(C)(CO)CO)[C@H](OC)C2)CC(=O)[C@H](C)/C=C(\C)[C@@H](O)[C@@H](OC)C(=O)[C@H](C)C[C@H](C)/C=C/C=C/C=C/1C [CCI-779]
CCI-779 final population model
  Inter-Patient Variability % on CL: 23.7%
  Inter-Patient Variability % on V2: 44.1%
  Inter-Patient Variability % on V3: 129%
  Intersubject variability on CL (ω^21), final model parameter estimate: 0.056
  Intersubject variability on V2 (ω^22), final model parameter estimate: 0.194
  Intersubject variability on V3 (ω^23), final model parameter estimate: 1.67
  Proportional error (ε^2), final model parameter estimate: 0.157
[1]
  V1 (θ2), parameter estimate: 37.6 L
  V2 (θ4), parameter estimate: 271 L
  V3 (θ6), parameter estimate: 323 L
CCI-779 final population model, TVQ2=6.48*DOSE^0.551
  Q2 (θ3), parameter estimate: 6.48 L/h
CCI-779 final population model, TVQ3=0.258*DOSE^0.551
  Q3 (θ5), parameter estimate: 0.258 L/h
CCI-779 final population model, factor for multiple doses (DNUM=1)
  INTR, inter-period variability on CL (θ8), parameter estimate: 0.103
[2]
  Inter-period variability on CL (θ8), bootstrap sample median: 0.110
  Intersubject variability on CL (ω^21), bootstrap sample median: 0.215
  Intersubject variability on V2 (ω^22), bootstrap sample median: 0.414
  Intersubject variability on V3 (ω^23), bootstrap sample median: 1.08
  Proportional error (ε^2), bootstrap sample median: 0.383
  Q2 (θ3), bootstrap sample median: 6.46 L/h
  Q3 (θ5), bootstrap sample median: 0.267 L/h
  V1 (θ2), bootstrap sample median: 38.3 L
  V2 (θ4), bootstrap sample median: 275 L
  V3 (θ6), bootstrap sample median: 339 L
For a given dose, patients with BSA values that range from 1.5 to 2 m^2
  increase of clearance with BSA: approximately 45%

Source: patent US7643943B2, “Methods for monitoring drug activities in vivo” (Wyeth LLC, priority 2003, dated 2010)
